Experiment [1] addresses human GLP-1R (Homo sapiens (Human), UniProt P43220, L260F). The experiment in a line: CHO GLP-1R Clone C6—Assay 2: HTRF cAMP cell-based functional agonist assay (low GLP-1R density). The following applies: for EC50: CHO GLP-1R Clone C6, cAMP HTRF, geometric mean; for Emax: CHO GLP-1R Clone C6, relative to saturating concentration of full agonist GLP-1 (1 μM), arithmetic mean, read-out: Assay 2 Emax (%).

Experiment [2] deals with human GLP-1R (Homo sapiens, UniProt P43220, G168S). Nature of the experiment: CHO GLP-1R Clone H6—Assay 1: HTRF cAMP cell-based functional agonist assay (high GLP-1R density). The following applies: for EC50: read-out: Assay 1 EC50, CHO GLP-1R Clone H6, cAMP HTRF, geometric mean; for Emax: read-out: Assay 1 Emax (%), CHO GLP-1R Clone H6, relative to saturating concentration of full agonist GLP-1 (1 μM), arithmetic mean.
Experimental: GLP-1R-mediated agonist activity was determined with a cell-based functional assay utilizing an HTRF (Homogeneous Time-Resolved Fluorescence) cAMP detection kit (cAMP HI Range Assay Kit; CisBio cat #62AM6PEJ) that measures cAMP levels in the cell. The method is a competitive immunoassay between native cAMP produced by the cells and exogenous cAMP labeled with the dye d2. The tracer binding is visualized by a mAb anti-cAMP labeled with Cryptate. The specific signal (i.e. energy transfer) is inversely proportional to the concentration of cAMP in either standard or experimental sample.
The human GLP-1R coding sequence (NCBI Reference Sequence NP_002053.3, including naturally-occurring variant Gly168Ser) was subcloned into pcDNA3 (Invitrogen) and a cell line stably expressing the receptor was isolated (designated Clone H6).
Cells were removed from cryopreservation, re-suspended in 40 mL of Dulbecco's Phosphate Buffered Saline (DPBS-Lonza Cat #17-512Q) and centrifuged at 800×g for 5 min at 22° C. The cell pellet was then re-suspended in 10 mL of growth medium [DMEM/F12 1:1 Mixture with HEPES, L-Gln, 500 mL (DMEM/F12 Lonza Cat #12-719F), 10% heat inactivated fetal bovine serum (Gibco Cat #16140-071), 5 mL of 100× Pen-Strep (Gibco Cat #15140-122), 5 mL of 100× L-Glutamine (Gibco Cat #25030-081) and 500 μg/mL Geneticin (G418) (Invitrogen #10131035)]. A 1 mL sample of the cell suspension in growth media was counted on a Becton Dickinson ViCell to determine cell viability and cell count per mL. The remaining cell suspension was then adjusted with growth media to deliver 2000 viable cells per well using a Matrix Combi Multidrop reagent dispenser, and the cells were dispensed into a white 384 well tissue culture treated assay plate (Corning 3570). The assay plate was then incubated for 48 hours at 37° C. in a humidified environment in 5% carbon dioxide.
Varying concentrations of each compound to be tested (in DMSO) were diluted in assay buffer (HBSS with Calcium/Magnesium (Lonza/BioWhittaker cat #10-527F)/0.1% BSA (Sigma Aldrich cat #A7409-1L)/20 mM HEPES (Lonza/BioWhiftaker cat #17-737E) containing 100 μM 3-isobutyl-1-methylxanthin (IBMX; Sigma cat #15879). The final DMSO concentration is 1%.
After 48 hours, the growth media was removed from the assay plate wells, and the cells were treated with 20 μL of the serially diluted compound in assay buffer for 30 minutes at 37° C. in a humidified environment in 5% carbon dioxide. Following the 30 minute incubation, 10 μL of labeled d2 cAMP and 10 μL of anti-cAMP antibody (both diluted 1:20 in cell lysis buffer; as described in the manufacturer's assay protocol) were added to each well of the assay plate. The plates were then incubated at room temperature and after 60 minutes, changes in the HTRF signal were read with an Envision 2104 multi-label plate reader using excitation of 330 nm and emissions of 615 and 665 nm. Raw data were converted to nM cAMP by interpolation from a cAMP standard curve (as described in the manufacturer's assay protocol) and the percent effect was determined relative to a saturating concentration of the full agonist GLP-17-36 (1 μM) included on each plate. EC50 determinations were made from agonist dose-response curves analyzed with a curve fitting program using a 4-parameter logistic dose response equation.

Bounds are passed on as bounds.

By EC50 is commonly meant the concentration needed to bring the measured effect to its halfway point. As usually defined, the Emax is the size of the effect at its maximum, as opposed to the concentration needed.

human GLP-1R (Homo sapiens (Human), UniProt P43220, L260F), sequence (P43220 24-463 L260F): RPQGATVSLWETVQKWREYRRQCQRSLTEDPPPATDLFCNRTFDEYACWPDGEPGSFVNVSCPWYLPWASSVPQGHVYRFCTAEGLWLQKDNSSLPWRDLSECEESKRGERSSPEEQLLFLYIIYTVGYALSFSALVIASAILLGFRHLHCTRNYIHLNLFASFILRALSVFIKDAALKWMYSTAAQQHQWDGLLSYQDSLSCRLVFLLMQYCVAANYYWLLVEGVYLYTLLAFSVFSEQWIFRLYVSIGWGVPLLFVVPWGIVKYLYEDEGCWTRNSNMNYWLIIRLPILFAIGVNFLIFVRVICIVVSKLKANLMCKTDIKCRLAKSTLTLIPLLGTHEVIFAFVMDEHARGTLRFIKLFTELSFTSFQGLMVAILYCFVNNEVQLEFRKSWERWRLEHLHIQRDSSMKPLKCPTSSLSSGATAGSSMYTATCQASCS
human GLP-1R (Homo sapiens, UniProt P43220, G168S), sequence (P43220 24-463 G168S limits assumed): as the sequence (P43220 24-463 L260F) above, with G145S, F237L counted along it

Consider `C[C@H]1CN(c2cccc(OCc3ccc(Cl)cc3F)n2)CCN1Cc1nc2ccc(C(=O)O)nc2n1C[C@@H]1CCO1` [Example 10A-10, 2-{[(2S)-4-{6-[(4-chloro-2-fluorobenzyl)oxy]pyridin-2-yl}-2-methylpiperazin-1-yl]methyl}-3-[(2S)-oxetan-2-ylmethyl]-3H-imidazo[4,5-b]pyridine-5-carboxylic acid], for which the concentration giving a half-maximal response (EC50) in experiment [1] was found to be 4.1 nM; in experiment [2], 0.3 nM. For the same compound, the figures for the Emax in experiment [1] and in experiment [2] were 100% and 84%, respectively.
For `O=C(O)c1ccc2nc(CN3CCC(c4cccc(OCc5ccc(Cl)cc5F)n4)CC3)n(CCN3CCCC3=O)c2c1` [Example 10A-12], in that order: 4400 nM, 110 nM, 110% and 68%.
For `C[C@H]1CN(c2cccc(OCc3ccc(Cl)cc3F)n2)CCN1Cc1nc2ccc(C(=O)O)cc2n1Cc1cocn1` [Example 10A-13], in that order: 170 nM, 4.1 nM, 75% and 67%.
On the same counts, the results for `C[C@H]1CN(c2cccc(OCc3ccc(C#N)cc3F)n2)CCN1Cc1nc2ccc(C(=O)O)cc2n1Cc1cocn1` [Example 10A-14] are 220 nM, 8.1 nM, 93% and 74%.
Take `C[C@H]1CN(c2cccc(OCc3ccc(C#N)cc3F)n2)CCN1Cc1nc2ccc(C(=O)O)cc2n1Cc1ncco1` [Example 10A-15, 2-{[(2S)-4-{6-[(4-cyano-2-fluorobenzyl)oxy]pyridin-2-yl}-2-methylpiperazin-1-yl]methyl}-1-(1,3-oxazol-2-ylmethyl)-1H-benzimidazole-6-carboxylic acid]: in experiment [1], a half-maximal response (EC50) required 27 nM and the Emax stood at 87%. Further, in experiment [2], the EC50 is 1.3 nM and the Emax is 72%.
Turning to `C[C@H]1CN(c2cccc(OCc3ccc(Cl)cc3F)n2)CCN1Cc1nc2ccc(C(=O)O)cc2n1Cc1cnco1` [Example 10A-16, 2-{[(2S)-4-{6-[(4-chloro-2-fluorobenzyl)oxy]pyridin-2-yl}-2-methylpiperazin-1-yl]methyl}-1-(1,3-oxazol-5-ylmethyl)-1H-benzimidazole-6-carboxylic acid], in experiment [1], the midpoint of the response, the EC50, lay at 45 nM and the Emax was 83%. In experiment [2], the concentration for a half-maximal effect (EC50) was 1.7 nM and the maximal response (Emax) was 67%.
Turning to `C[C@H]1CN(c2cccc(OCc3ccc(C#N)cc3F)n2)CCN1Cc1nc2ccc(C(=O)O)cc2n1Cc1cnco1` [Example 10A-17], the EC50 turned out to be 59 nM in experiment [1] and 1.8 nM in experiment [2]. Moreover, the maximal response (Emax) stood at 85% in experiment [1] and 77% in experiment [2].
As for `C[C@H]1CN(c2cccc(OCc3ccc(Cl)cc3F)n2)CCN1Cc1nc2ccc(C(=O)O)cc2n1Cc1ncco1` [Example 10A-18, 2-{[(2S)-4-{6-[(4-chloro-2-fluorobenzyl)oxy]pyridin-2-yl}-2-methylpiperazin-1-yl]methyl}-1-(1,3-oxazol-2-ylmethyl)-1H-benzimidazole-6-carboxylic acid], in experiment [1], a half-maximal response (EC50) required 33 nM and the maximal effect (Emax) was found to be 78%. Besides, in experiment [2], the concentration giving a half-maximal response (EC50) was 1.6 nM and the Emax was 78%.
`Cc1nnc(Cn2c(CN3CCC(c4cccc(OCc5ccc(Cl)cc5F)n4)CC3)nc3ccc(C(=O)O)cc32)n1C` [Example 10A-20] had an EC50 in experiment [1] greater than 20000 nM. Further, in experiment [2], the half-maximal effective concentration (EC50) is greater than 15000 nM and the maximum response (Emax) is 98%.
With `CCn1cnnc1Cn1c(CN2CCN(c3cccc(OCc4ccc(Cl)cc4F)n3)C[C@@H]2C)nc2ccc(C(=O)O)cc21` [Example 10A-21], the EC50 stood at 400 nM in experiment [1] and 18 nM in experiment [2]. The values for the Emax in experiment [1] and in experiment [2] were 100% and 88%, respectively.
Consider `C[C@H]1CN(c2cccc(OCc3ccc(Cl)cc3F)n2)CCN1Cc1nc2ccc(C(=O)O)cc2n1Cc1cnnn1C` [Example 10A-22], for which, in experiment [1], it took 100 nM to reach a half-maximal effect (EC50) and the maximal response (Emax) stood at 79%. In experiment [2], the EC50 amounted to 5.7 nM and the Emax stood at 67%.
Take `C[C@H]1CN(c2cccc(OCc3ccc(C#N)cc3F)n2)CCN1Cc1nc2ccc(C(=O)O)cc2n1Cc1cnnn1C` [Example 10A-23]: in experiment [1], the EC50 was found to be 760 nM and the maximum response (Emax) came to 91%. For the same compound, in experiment [2], the EC50 was found to be 38 nM and the maximum response (Emax) worked out at 76%.
For `N#Cc1ccc(COc2cccc(C3CCN(Cc4nc5ccc(C(=O)O)nc5n4Cc4cnco4)CC3)n2)c(F)c1` [Example 10A-24], in that order: 130 nM, 94%, 5.7 nM and 78%.
For `C[C@H]1CN(c2cccc(OCc3ccc(C#N)cc3F)n2)CCN1Cc1nc2ccc(C(=O)O)cc2n1Cc1cncn1C` [Example 10A-25], in that order: 41 nM, 99%, 1.7 nM and 82%.
For `COC1(Cn2c(CN3CCC(c4cccc(OCc5ccc(Cl)cc5F)n4)CC3)nc3ccc(C(=O)O)cc32)CCC1` [Example 10A-26, 2-[(4-{6-[(4-chloro-2-fluorobenzyl)oxy]pyridin-2-yl}piperidin-1-yl)methyl]-1-[(1-methoxycyclobutyl)methyl]-1H-benzimidazole-6-carboxylic acid], in that order: 190 nM, 80%, 7 nM and 59%.
Regarding `CCn1cncc1Cn1c(CN2CCC(c3cccc(OCc4ccc(F)cc4F)n3)CC2)nc2ccc(C(=O)O)cc21` [Example 10A-32, 2-[(4-{6-[(2,4-difluorobenzyl)oxy]pyridin-2-yl}piperidin-1-yl)methyl]-1-[(1-ethyl-1H-imidazol-5-yl)methyl]-1H-benzimidazole-6-carboxylic acid], the figures for the EC50 in experiment [1] and in experiment [2] were 5 nM and 0.47 nM, respectively. The Emax came out at 94% in experiment [1] and 77% in experiment [2].
For `O=C(O)c1ccc2nc(CN3CCN(c4cccc(OCc5ccc(Cl)cc5F)n4)CC3)n(Cc3ncco3)c2c1` [Example 10A-33, 2-[(4-{6-[(4-chloro-2-fluorobenzyl)oxy]pyridin-2-yl}piperazin-1-yl)methyl]-1-(1,3-oxazol-2-ylmethyl)-1H-benzimidazole-6-carboxylic acid], in that order: 24 nM, 1.5 nM, 91% and 73%.
With `N#Cc1ccc(COc2cccc(N3CCN(Cc4nc5ccc(C(=O)O)cc5n4Cc4ncco4)CC3)n2)c(F)c1` [Example 10A-34, 2-[(4-{6-[(4-cyano-2-fluorobenzyl)oxy]pyridin-2-yl}piperazin-1-yl)methyl]-1-(1,3-oxazol-2-ylmethyl)-1H-benzimidazole-6-carboxylic acid], in experiment [1], the half-maximal effective concentration (EC50) stood at 29 nM and the Emax worked out at 95%. In addition, in experiment [2], the 50% effective concentration (EC50) came to 1.5 nM and the Emax was determined as 80%.
Consider `CCn1cncc1Cn1c(CN2CCN(c3cccc(OCc4ccc(C#N)cc4F)n3)CC2)nc2ccc(C(=O)O)cc21` [Example 10A-35, 2-[(4-{6-[(4-cyano-2-fluorobenzyl)oxy]pyridin-2-yl}piperazin-1-yl)methyl]-1-[(1-ethyl-1H-imidazol-5-yl)methyl]-1H-benzimidazole-6-carboxylic acid], for which the figures for the EC50 in experiment [1] and in experiment [2] were 3.8 nM and 0.3 nM, respectively. The maximal response (Emax) in experiment [1] and in experiment [2] was 93% each time.
For the compound `Cn1cncc1Cn1c(CN2CCN(c3cccc(OCc4ccc(Cl)cc4F)n3)CC2)nc2ccc(C(=O)O)cc21` [Example 10A-36, 2-[(4-{6-[(4-chloro-2-fluorobenzyl)oxy]pyridin-2-yl}piperazin-1-yl)methyl]-1-[(1-methyl-1H-imidazol-5-yl)methyl]-1H-benzimidazole-6-carboxylic acid], the EC50 amounted to 13 nM in experiment [1] and 0.33 nM in experiment [2]. In addition, the maximum response (Emax) in experiment [1] came out at 110%; in experiment [2], 82%.
Turning to `Cn1cncc1Cn1c(CN2CCN(c3cccc(OCc4ccc(C#N)cc4F)n3)CC2)nc2ccc(C(=O)O)cc21` [Example 10A-37, 2-[(4-{6-[(4-cyano-2-fluorobenzyl)oxy]pyridin-2-yl}piperazin-1-yl)methyl]-1-[(1-methyl-1H-imidazol-5-yl)methyl]-1H-benzimidazole-6-carboxylic acid], in experiment [1], the midpoint of the response, the EC50, lay at 23 nM and the Emax is 110%. In experiment [2], the EC50 was determined as 3.4 nM and the maximum response (Emax) was 86%.
In the case of `O=C(O)c1ccc2nc(CN3CCC(c4cccc(OCc5ccc(Cl)cc5F)n4)CC3)n(Cc3cocn3)c2c1` [Example 10A-41, 2-[(4-{6-[(4-chloro-2-fluorobenzyl)oxy]pyridin-2-yl}piperidin-1-yl)methyl]-1-(1,3-oxazol-4-ylmethyl)-1H-benzimidazole-6-carboxylic acid], in experiment [1], the concentration for a half-maximal effect (EC50) turned out to be 140 nM and the maximum response (Emax) is 82%. Also, in experiment [2], the EC50 stood at 12 nM and the Emax worked out at 75%.
As for `O=C(O)c1ccc2nc(CN3CCC(c4cccc(OCc5ccc(Cl)cc5F)n4)CC3)n(Cc3ncco3)c2c1` [Example 10A-42, 2-[(4-{6-[(4-chloro-2-fluorobenzyl)oxy]pyridin-2-yl}piperidin-1-yl)methyl]-1-(1,3-oxazol-2-ylmethyl)-1H-benzimidazole-6-carboxylic acid], in experiment [1], the midpoint of the response, the EC50, lay at 29 nM and the Emax worked out at 74%. Further, in experiment [2], the concentration giving a half-maximal response (EC50) was 2.7 nM and the Emax came to 73%.
On the same counts, the results for `N#Cc1ccc(COc2cccc(C3CCN(Cc4nc5ccc(C(=O)O)cc5n4Cc4cnco4)CC3)n2)c(F)c1` [Example 10A-43, 2-[(4-{6-[(4-cyano-2-fluorobenzyl)oxy]pyridin-2-yl}piperidin-1-yl)methyl]-1-(1,3-oxazol-5-ylmethyl)-1H-benzimidazole-6-carboxylic acid] are 48 nM, 79%, 4 nM and 64%.

The record behind these values is patent US10208019B2, “GLP-1 receptor agonists and uses thereof” (Pfizer Inc., priority 2016, dated 2019).
